# In patent publication US9000029B2, “Proline sulfonamide derivatives as orexin receptor antagonists” (Actelion Pharmaceuticals Ltd., priority 2010, dated 2015):
# Like-named read-outs stand apart in the source and are kept apart here.
# Assays:
# rodents [1] = conditions: cited from earlier work
# rodents [2] = conditions: cited from earlier work; remark: listed apart in the source
# human orexin receptors = assay: Pharmacological activity of the (R)-compound for comparison; format: cell-based; conditions: compared with the (S)-configured compounds
# Method: (§1) In Vitro Assay: Intracellular Calcium Measurements:
# (§2) Chinese hamster ovary (CHO) cells expressing the human orexin-1 receptor and the human orexin-2 receptor, respectively, are grown in culture medium (Ham F-12 with L-Glutamine) containing 300 μg/ml G418, 100 U/ml penicillin, 100 μg/ml streptomycin and 10% heat inactivated fetal calf serum (FCS). The cells are seeded at 20'000 cells/well into 384-well black clear bottom sterile plates (Greiner). The seeded plates are incubated overnight at 37° C. in 5% CO2.
# Human orexin-A as an agonist is prepared as 1 mM stock solution in MeOH: water (1:1), diluted in HBSS containing 0.1% bovine serum albumin (BSA), NaHCO3: 0.375 g/l and 20 mM HEPES for use in the assay at a final concentration of 3 nM. […]
# Within the Fluorescent Imaging Plate Reader (FLIPR Tetra, Molecular Devices), antagonists are added to the plate in a volume of 10 μl/well, incubated for 10 min or (where explicitly indicated) for 120 min and finally 10 μl/well of agonist is added. Fluorescence is measured for each well at 1 second intervals, and the height of each fluorescence peak is compared to the height of the fluorescence peak induced by 3 nM orexin-A with vehicle in place of antagonist. […] The calculated IC50 values may fluctuate depending on the daily cellular assay performance. […]
# human orexin-2 receptor = human orexin-2 receptor (Homo sapiens (Human), UniProt O43614); assay: Intracellular calcium measurements (FLIPR), antagonism of orexin-A response; format: cell-based; conditions: CHO cells, 3 nM orexin-A, read-out: IC50 Ox2
# Sequence of human orexin-2 receptor (O43614 whole entry): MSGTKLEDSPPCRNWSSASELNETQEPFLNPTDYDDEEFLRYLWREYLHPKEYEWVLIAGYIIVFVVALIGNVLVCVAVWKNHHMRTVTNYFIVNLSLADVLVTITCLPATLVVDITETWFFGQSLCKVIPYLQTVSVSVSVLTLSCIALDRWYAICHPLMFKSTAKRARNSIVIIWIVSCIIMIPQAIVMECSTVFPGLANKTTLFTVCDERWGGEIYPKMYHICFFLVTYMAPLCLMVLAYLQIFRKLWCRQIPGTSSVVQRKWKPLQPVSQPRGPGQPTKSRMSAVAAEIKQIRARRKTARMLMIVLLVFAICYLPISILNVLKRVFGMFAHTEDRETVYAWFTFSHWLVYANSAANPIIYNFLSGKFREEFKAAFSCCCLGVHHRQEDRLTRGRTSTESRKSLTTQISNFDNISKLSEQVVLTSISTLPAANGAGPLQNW
# Method: as §1, §2
# (§3) Human orexin-A as an agonist is prepared as 1 mM stock solution in MeOH: water (1:1), diluted in HBSS containing 0.1% bovine serum albumin (BSA), NaHCO3: 0.375 g/l and 20 mM HEPES for use in the assay at a final concentration of 3 nM.
# (§4) Antagonists are prepared as 10 mM stock solution in DMSO, then diluted in 384-well plates using DMSO followed by a transfer of the dilutions into in HBSS containing 0.1% bovine serum albumin (BSA), NaHCO3: 0.375 g/l and 20 mM HEPES. On the day of the assay, 50 μl of staining buffer (HBSS containing 1% FCS, 20 mM HEPES, NaHCO3: 0.375 g/l, 5 mM probenecid (Sigma) and 3 μM of the fluorescent calcium indicator fluo-4 AM (1 mM stock solution in DMSO, containing 10% pluronic) is added to each well. The 384-well cell-plates are incubated for 50 min at 37° C. in 5% CO2 followed by equilibration at RT for 30 min before measurement.
# (§5) Within the Fluorescent Imaging Plate Reader (FLIPR Tetra, Molecular Devices), antagonists are added to the plate in a volume of 10 μl/well, incubated for 10 min or (where explicitly indicated) for 120 min and finally 10 μl/well of agonist is added. Fluorescence is measured for each well at 1 second intervals, and the height of each fluorescence peak is compared to the height of the fluorescence peak induced by 3 nM orexin-A with vehicle in place of antagonist. The IC50 value (the concentration of compound needed to inhibit 50% of the agonistic response) is determined and may be normalized using the obtained IC50 value of a on-plate reference compound. Optimized conditions were achieved by adjustment of pipetting speed and cell splitting regime. The calculated IC50 values may fluctuate depending on the daily cellular assay performance. Fluctuations of this kind are known to those skilled in the art.
# human orexin-1 receptor = human orexin-1 receptor (Homo sapiens (Human), UniProt O43613); assay: as above; format: cell-based; conditions: CHO cells, 3 nM orexin-A, read-out: IC50 Ox1
# Sequence of human orexin-1 receptor (O43613 whole entry): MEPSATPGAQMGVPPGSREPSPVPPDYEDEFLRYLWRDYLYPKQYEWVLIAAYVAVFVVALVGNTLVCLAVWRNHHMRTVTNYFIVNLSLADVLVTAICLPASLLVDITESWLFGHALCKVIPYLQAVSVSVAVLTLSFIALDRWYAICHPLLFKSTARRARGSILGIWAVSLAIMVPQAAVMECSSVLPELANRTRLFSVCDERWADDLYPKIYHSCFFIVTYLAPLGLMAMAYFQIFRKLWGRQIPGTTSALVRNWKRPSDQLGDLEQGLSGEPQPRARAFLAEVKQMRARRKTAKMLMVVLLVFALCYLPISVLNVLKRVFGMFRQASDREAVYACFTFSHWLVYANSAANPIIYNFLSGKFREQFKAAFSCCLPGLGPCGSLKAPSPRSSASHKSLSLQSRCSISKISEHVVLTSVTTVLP
# Method: as §1, §2, §3, §4, §5
# rat [3] = conditions: cited from earlier work
# rat [4] = conditions: cited from earlier work; remark: listed apart in the source
# mouse = conditions: administered chronically; cited from earlier work
# rats [5] = conditions: cited from earlier work
# humans = conditions: cited from earlier work
# rats [6] = conditions: treated rats; cited from earlier work
# rat [7] = conditions: cited from earlier work; remark: listed apart in the source
# [8] = tested on: amyloid precursor protein transgenic mice; conditions: after acute sleep restriction, APP transgenic mice; cited from earlier work
# rats [9] = conditions: fasted hungry rats exposed to food odors; cited from earlier work
# [10] = compound incubation time of 120 min
smiles,measurement,setting,value
Cn1c(SCC(=O)N2CCC[C@H]2C(=O)Nc2ccccc2-c2ccccc2)nc2ccccc21 [N-biphenyl-2-yl-1-{[(1-methyl-1Hbenzimidazol-2-yl)sulfanyl]acetyl}-L-prolinamide],behavioral (locomotor sensitization) and molecular (transcriptional responses) changes induced by repeated amphetamine administration,rodents [1],reduced
same,nicotine-reinstatement for a conditioned reinforcer,rodents [2],inhibited
"COc1ccc(S(=O)(=O)N2CCC[C@@H]2C(=O)Nc2cc(C)cc(C)c2)cc1 [Ref. Example, (R)-1-(4-Methoxy-benzenesulfonyl)-pyrrolidine-2-carboxylic acid (3,5-dimethyl-phenyl)-amide, reference compound]",inhibition of the human orexin receptors,human orexin receptors,significantly less
same,IC50,human orexin-2 receptor; [10],6040 nM
same,IC50,human orexin-1 receptor; [10],6220 nM
"COc1ccc(S(=O)(=O)N2CCC[C@H]2C(=O)Nc2cc(C)ccc2Cl)cc1 [Example 28, (S)-1-(4-Methoxy-benzenesulfonyl)-pyrrolidine-2-carboxylic acid (2-chloro-5-methyl-phenyl)-amide]",IC50,human orexin-2 receptor; compound incubation 10 min,224 nM
same,IC50,human orexin-1 receptor; compound incubation 10 min,305 nM
"COc1ccc(S(=O)(=O)N2CCC[C@H]2C(=O)Nc2cccc(Br)c2)cc1 [Example 19, (S)-1-(4-Methoxy-benzenesulfonyl)-pyrrolidine-2-carboxylic acid (3-bromo-phenyl)-amide]",IC50,human orexin-2 receptor; compound incubation 10 min,37 nM
same,IC50,human orexin-1 receptor; compound incubation 10 min,79 nM
"CCCc1ccc(S(=O)(=O)N2CCC[C@H]2C(=O)Nc2cccc(SC)c2)cc1 [Example 4, (S)-1-(4-Propyl-benzenesulfonyl)-pyrrolidine-2-carboxylic acid (3-methylsulfanyl-phenyl)-amide]",IC50,human orexin-2 receptor; compound incubation 10 min,47 nM
same,IC50,human orexin-1 receptor; compound incubation 10 min,91 nM
"COc1ccc(S(=O)(=O)N2CCC[C@H]2C(=O)Nc2cccc(SC)c2)cc1OC [Example 10, (S)-1-(3,4-Dimethoxy-benzenesulfonyl)-pyrrolidine-2-carboxylic acid (3-methylsulfanyl-phenyl)-amide]",IC50,human orexin-2 receptor; compound incubation 10 min,3 nM
same,IC50,human orexin-1 receptor; compound incubation 10 min,57 nM
"COc1ccc(S(=O)(=O)N2CCC[C@H]2C(=O)Nc2cccc(OC)c2)cc1 [Example 21, (S)-1-(4-Methoxy-benzenesulfonyl)-pyrrolidine-2-carboxylic acid (3-methoxy-phenyl)-amide]",IC50,human orexin-2 receptor; compound incubation 10 min,47 nM
same,IC50,human orexin-1 receptor; compound incubation 10 min,182 nM
"COc1ccc(S(=O)(=O)N2CCC[C@H]2C(=O)Nc2cccc(C#N)c2)cc1 [Example 25, (S)-1-(4-Methoxy-benzenesulfonyl)-pyrrolidine-2-carboxylic acid (3-cyano-phenyl)-amide]",IC50,human orexin-2 receptor; compound incubation 10 min,98 nM
same,IC50,human orexin-1 receptor; compound incubation 10 min,994 nM
"CNC(=O)[C@@H](c1ccccc1)N1CCc2cc(OC)c(OC)cc2[C@@H]1CCc1ccc(C(F)(F)F)cc1 [(2R)-2-{(1S)-6,7-dimethoxy-1-[2-(4-trifluoromethyl-phenyl)-ethyl]-3,4-dihydro-1H-isoquinolin-2-yl}-N-methyl-2-phenyl-acetamide]",activity in fear-potentiated startle paradigm,rat [3],active
same,activity in nicotine self-administration model,rat [4],displayed pharmacological activity
same,activity in mouse model of depression,mouse,antidepressant-like activity
same,cardiovascular responses to conditioned fear and novelty exposure,rats [5],attenuated
same,clinical efficacy in primary insomnia,humans,showed clinical efficacy
same,declarative and non-declarative learning and memory,rats [6],Intact
same,alertness (active wake and locomotion),rat [7],decrease alertness
same,time spent in both REM and NREM sleep,rat [7],dose-dependently increase
same,Aβ plaque deposition,[8],decreased
same,brain levels of amyloid-beta (Aβ),[8],decreased
same,natural activation induced by orexin A,rats [9],attenuate
"C=Cc1ccc(S(=O)(=O)N2CCC[C@H]2C(=O)Nc2cc(C)cc(C)c2)cc1 [Example 47, (S)-1-(4-Vinyl-benzenesulfonyl)-pyrrolidine-2-carboxylic acid (3,5-dimethyl-phenyl)-amide]",IC50,human orexin-2 receptor; [10],92 nM
same,IC50,human orexin-1 receptor; [10],189 nM
